# Measured values taken from ChEMBL document CHEMBL4742390, “Derivatives of quinolines as inhibitors of dyrk1a and/or dyrk1b kinases” (2019).
# Target: Dual specificity tyrosine-phosphorylation-regulated kinase 1A (Homo sapiens, UniProt Q13627)
# Assay: Inhibition of N-terminal GST tagged human DYRK1A expressed in Sf21 cells incubated for 30 mins by ADP-Glo assay
# Conditions: not given
row,Structure (SMILES),IC50 [nM]
1,Cc1cc(-c2c[nH]c3ncccc23)cc2c(-c3ccccc3)ccnc12,≥ 100
2,CNC(=O)c1cnc2[nH]cc(-c3ccc4nccc(-c5cccnc5)c4c3)c2c1,< 10
3,N[C@@H]1CCCN(c2ccnc3c(F)cc(-c4c[nH]c5ncc(C(=O)NCc6cccnc6)cc45)cc23)C1,< 10
4,CC(=O)Nc1cnc2ccc(-c3c[nH]c4ncc(C(=O)NCc5cccnc5)cc34)cc2c1,< 10
5,CNC(=O)c1cnc2[nH]cc(-c3cc(F)c4nccc(N5CCC[C@H](N)C5)c4c3)c2c1,< 10
6,O=C(NCc1cccnc1)c1cnc2[nH]cc(-c3cc(F)c4nccc(-c5cccnc5)c4c3)c2c1,< 10
7,C=CC1CN2CCC1CC2[C@H](O)c1ccnc2ccc(-c3c[nH]c4ncccc34)cc12 (some centres not stated),< 10
8,C=CCN(C)C(=O)c1cnc2[nH]cc(-c3ccc4nccc(Cl)c4c3)c2c1,< 10
9,NCCCNC(=O)c1cnc2[nH]cc(-c3cc(Cl)c4ncccc4c3)c2c1,< 10
10,Clc1cc(-c2c[nH]c3ncccc23)cc2cccnc12,< 10
11,CC(=O)N1CCC(Nc2c(N)cnc3ccc(-c4c[nH]c5ncccc45)cc23)CC1,< 10
12,CNC(=O)c1cnc2[nH]cc(-c3ccc4nccc(N5CCOCC5)c4c3)c2c1,< 10
13,N[C@H]1CC[C@H](Nc2c(NCC3CCOCC3)cnc3ccc(-c4c[nH]c5ncc(C(=O)NCc6cccnc6)cc45)cc23)CC1,< 10
14,c1cnc2[nH]cc(-c3ccc4ncc(NCc5ccoc5)cc4c3)c2c1,< 10
15,NCCCNC(=O)c1cnc2[nH]cc(-c3cc(F)c4ncccc4c3)c2c1,< 10
16,O=C(NCc1ccccc1)c1cnc2[nH]cc(-c3cc(F)c4nccc(-c5cccnc5)c4c3)c2c1,< 10
17,C=CCN(C)C(=O)c1cnc2[nH]cc(-c3cc(F)c4nccc(-c5cccnc5)c4c3)c2c1,< 10
18,CNC(=O)c1cnc2[nH]cc(-c3cc(F)c4nccc(-c5cccnc5)c4c3)c2c1,< 10
19,Fc1cc(-c2c[nH]c3ncccc23)cc2cccnc12,< 10
20,CNC(=O)c1cnc2[nH]cc(-c3ccc4ncc(NCc5cccc(Cl)c5)c(N5CCOCC5)c4c3)c2c1,< 10
21,CNC(=O)c1cnc2[nH]cc(-c3cc(F)c4ncccc4c3)c2c1,< 10
22,N[C@@H]1CCCN(c2ccnc3c(F)cc(-c4c[nH]c5ncc(CNCc6ccccc6)cc45)cc23)C1,< 10
23,CNC(=O)c1cnc2[nH]cc(-c3cc(F)c4nccc(CCc5ccccc5)c4c3)c2c1,< 10
24,N[C@@H]1CCCN(c2ccnc3c(F)cc(-c4c[nH]c5ncc(C(=O)NCc6cncnc6)cc45)cc23)C1,< 10
25,c1cnc2[nH]cc(-c3ccc4nccc(-c5ccncc5)c4c3)c2c1,< 10
26,CNC(=O)c1cnc2[nH]cc(-c3cc(F)c4nccc(N5CCC[C@@H](N)C5)c4c3)c2c1,< 10

row,Structure (SMILES),IC50 [nM]
1,CNC(=O)c1cnc2[nH]cc(-c3ccc4ncc([N+](=O)[O-])c(N5CCC[C@H](N)C5)c4c3)c2c1,< 10
2,C=CCCCc1ccnc2ccc(-c3c[nH]c4ncc(CN(C)CC=C)cc34)cc12,< 10
3,Fc1cc(-c2c[nH]c3ncccc23)cc2c(-c3cccnc3)ccnc12,< 10
4,CNC(=O)c1cnc2[nH]cc(-c3ccc4ncc(NC(C)=O)c(N5CCOCC5)c4c3)c2c1,< 10
5,CNC(=O)c1cnc2[nH]cc(-c3ccc4ncc(NCc5cccc(Cl)c5)c(N5CCC[C@H](N)C5)c4c3)c2c1,< 10
6,C=CCN(C)C(=O)c1cnc2[nH]cc(-c3cc(Cl)c4ncccc4c3)c2c1,< 10
7,NCCCNC(=O)c1cnc2[nH]cc(-c3cc(F)c4nccc(-c5cccnc5)c4c3)c2c1,< 10
8,C=CCN(C)Cc1cnc2[nH]cc(-c3cc(F)c4nccc(-c5cccnc5)c4c3)c2c1,< 10
9,CNC(=O)c1cnc2[nH]cc(-c3ccc4ncc(N)c(N5CCC[C@H](N)C5)c4c3)c2c1,< 10
10,CNC(=O)c1cnc2[nH]cc(-c3cc(F)c4nccc(-c5cnccc5C)c4c3)c2c1,< 10
11,Fc1cc(-c2c[nH]c3ncc(CNCc4ccccc4)cc23)cc2c(-c3cccnc3)ccnc12,< 10
12,Nc1cnc2ccc(-c3c[nH]c4ncc(C(=O)NCc5cccnc5)cc34)cc2c1,< 10
13,C=CCN(C)C(=O)c1cnc2[nH]cc(-c3cc(OC)c4ncccc4c3)c2c1,≥ 100
14,O=C(NCc1ccccc1)c1cnc2[nH]cc(-c3cc(F)c4ncccc4c3)c2c1,< 10
15,C=CCN(C)C(=O)c1cnc2[nH]cc(-c3cc(F)c4ncccc4c3)c2c1,< 10
16,CNC(=O)c1cnc2[nH]cc(-c3ccc4nccc(Cl)c4c3)c2c1,< 10
17,CNC(=O)c1cnc2[nH]cc(-c3ccc4ncccc4c3)c2c1,< 10
18,c1cncc(-c2ccnc3ccc(-c4c[nH]c5ncccc45)cc23)c1,< 10
19,CC(=O)Nc1cnc2[nH]cc(-c3cc(F)c4nccc(-c5cccnc5)c4c3)c2c1,< 10
20,O=C(NCc1cccnc1)c1cnc2[nH]cc(-c3ccc4ncc(NCC5CCOCC5)cc4c3)c2c1,< 10
21,NC(=O)c1cnc2[nH]cc(-c3cc(F)c4ncccc4c3)c2c1,< 10
22,c1ccc(-c2ccnc3ccc(-c4c[nH]c5ncccc45)cc23)cc1,< 10
23,c1cnc2ccc(-c3c[nH]c4ncccc34)cc2c1,< 10
24,N[C@H]1CCCN(c2ccnc3ccc(-c4c[nH]c5ncccc45)cc23)C1,< 10
25,CNC(=O)c1cnc2[nH]cc(-c3ccc4ncc(NCC5CCOCC5)c(N5CCOCC5)c4c3)c2c1,< 10
26,O=C(NCc1ccccc1)c1cnc2[nH]cc(-c3cc(Cl)c4ncccc4c3)c2c1,< 10

# Same assay, conditions: sf21
row,Structure (SMILES),IC50 [nM]
1,CN1CCC(N(C)c2c([N+](=O)[O-])cnc3ccc(-c4c[nH]c5ncccc45)cc23)CC1,10
2,N[C@H]1CC[C@H](Nc2c([N+](=O)[O-])cnc3ccc(-c4c[nH]c5ncc(C(=O)NCc6cccnc6)cc45)cc23)CC1,10
3,COc1cc(-c2c[nH]c3ncc(C(N)=O)cc23)cc2c(-c3cccnc3)ccnc12,10
4,FC(F)(F)Oc1cc(-c2c[nH]c3ncccc23)cc2cccnc12,10

# Target: Dual specificity tyrosine-phosphorylation-regulated kinase 1B (Homo sapiens, UniProt Q9Y463)
# Assay: Inhibition of N-terminal GST tagged human DYRK1B expressed in Sf21 cells incubated for 60 mins by ADP-Glo assay
# Conditions: not given
# Sequence of Dual specificity tyrosine-phosphorylation-regulated kinase 1B (Q9Y463 whole entry): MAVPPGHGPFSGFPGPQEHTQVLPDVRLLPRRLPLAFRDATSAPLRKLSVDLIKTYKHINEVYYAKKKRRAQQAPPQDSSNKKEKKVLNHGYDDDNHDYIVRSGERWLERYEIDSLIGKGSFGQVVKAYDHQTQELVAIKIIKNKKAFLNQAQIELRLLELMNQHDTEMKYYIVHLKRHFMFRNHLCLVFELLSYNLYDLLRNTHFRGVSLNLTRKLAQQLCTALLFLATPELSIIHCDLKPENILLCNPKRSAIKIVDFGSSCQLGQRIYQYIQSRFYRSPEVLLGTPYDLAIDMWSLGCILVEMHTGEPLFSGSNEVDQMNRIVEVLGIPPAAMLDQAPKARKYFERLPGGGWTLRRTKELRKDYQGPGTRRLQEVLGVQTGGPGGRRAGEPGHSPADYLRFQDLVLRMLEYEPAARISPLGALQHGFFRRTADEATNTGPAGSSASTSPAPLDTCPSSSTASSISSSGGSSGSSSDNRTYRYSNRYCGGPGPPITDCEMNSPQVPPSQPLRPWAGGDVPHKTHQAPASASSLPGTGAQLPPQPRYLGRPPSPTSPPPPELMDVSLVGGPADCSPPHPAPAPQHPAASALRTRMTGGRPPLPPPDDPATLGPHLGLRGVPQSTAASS
row,Structure (SMILES),IC50 [nM]
1,Cc1cc(-c2c[nH]c3ncccc23)cc2c(-c3ccccc3)ccnc12,≥ 100
2,CNC(=O)c1cnc2[nH]cc(-c3ccc4nccc(-c5cccnc5)c4c3)c2c1,< 10
3,N[C@@H]1CCCN(c2ccnc3c(F)cc(-c4c[nH]c5ncc(C(=O)NCc6cccnc6)cc45)cc23)C1,< 10
4,CC(=O)Nc1cnc2ccc(-c3c[nH]c4ncc(C(=O)NCc5cccnc5)cc34)cc2c1,< 10
5,CNC(=O)c1cnc2[nH]cc(-c3cc(F)c4nccc(N5CCC[C@H](N)C5)c4c3)c2c1,< 10
6,O=C(NCc1cccnc1)c1cnc2[nH]cc(-c3cc(F)c4nccc(-c5cccnc5)c4c3)c2c1,< 10
7,C=CC1CN2CCC1CC2[C@H](O)c1ccnc2ccc(-c3c[nH]c4ncccc34)cc12 (some centres not stated),< 10
8,NCCCNC(=O)c1cnc2[nH]cc(-c3cc(Cl)c4ncccc4c3)c2c1,< 10
9,Clc1cc(-c2c[nH]c3ncccc23)cc2cccnc12,< 10
10,CC(=O)N1CCC(Nc2c(N)cnc3ccc(-c4c[nH]c5ncccc45)cc23)CC1,< 10
11,CNC(=O)c1cnc2[nH]cc(-c3ccc4nccc(N5CCOCC5)c4c3)c2c1,< 10
12,c1cnc2[nH]cc(-c3ccc4ncc(NCc5ccoc5)cc4c3)c2c1,< 10
13,NCCCNC(=O)c1cnc2[nH]cc(-c3cc(F)c4ncccc4c3)c2c1,< 10
14,CNC(=O)c1cnc2[nH]cc(-c3cc(OC)c4ncccc4c3)c2c1,≥ 100
15,CNC(=O)c1cnc2[nH]cc(-c3cc(F)c4nccc(-c5cccnc5)c4c3)c2c1,< 10
16,N[C@H]1CC[C@H](Nc2ccnc3ccc(-c4c[nH]c5ncccc45)cc23)CC1,≥ 100
17,Fc1cc(-c2c[nH]c3ncccc23)cc2cccnc12,< 10
18,CNC(=O)c1cnc2[nH]cc(-c3cc(F)c4ncccc4c3)c2c1,< 10
19,N[C@@H]1CCCN(c2ccnc3c(F)cc(-c4c[nH]c5ncc(CNCc6ccccc6)cc45)cc23)C1,< 10
20,CNC(=O)c1cnc2[nH]cc(-c3cc(F)c4nccc(CCc5ccccc5)c4c3)c2c1,< 10
21,N[C@@H]1CCCN(c2ccnc3c(F)cc(-c4c[nH]c5ncc(C(=O)NCc6cncnc6)cc45)cc23)C1,< 10
22,c1cnc2[nH]cc(-c3ccc4nccc(-c5ccncc5)c4c3)c2c1,< 10
23,CNC(=O)c1cnc2[nH]cc(-c3cc(F)c4nccc(N5CCC[C@@H](N)C5)c4c3)c2c1,< 10
24,N[C@H]1CCN(c2ccnc3ccc(-c4c[nH]c5ncccc45)cc23)C1,< 10

row,Structure (SMILES),IC50 [nM]
1,Fc1cc(-c2c[nH]c3ncccc23)cc2c(-c3cccnc3)ccnc12,< 10
2,CNC(=O)c1cnc2[nH]cc(-c3ccc4ncc(NC(C)=O)c(N5CCOCC5)c4c3)c2c1,< 10
3,CNC(=O)c1cnc2[nH]cc(-c3cc(C)c4nccc(-c5cccnc5)c4c3)c2c1,≥ 100
4,NCCCNC(=O)c1cnc2[nH]cc(-c3cc(F)c4nccc(-c5cccnc5)c4c3)c2c1,< 10
5,CNC(=O)c1cnc2[nH]cc(-c3ccc4ncc(N)c(N5CCC[C@H](N)C5)c4c3)c2c1,< 10
6,CNC(=O)c1cnc2[nH]cc(-c3cc(F)c4nccc(-c5cnccc5C)c4c3)c2c1,< 10
7,Fc1cc(-c2c[nH]c3ncc(CNCc4ccccc4)cc23)cc2c(-c3cccnc3)ccnc12,< 10
8,Nc1cnc2ccc(-c3c[nH]c4ncc(C(=O)NCc5cccnc5)cc34)cc2c1,< 10
9,C=CCN(C)C(=O)c1cnc2[nH]cc(-c3cc(OC)c4ncccc4c3)c2c1,≥ 100
10,O=C(NCc1ccccc1)c1cnc2[nH]cc(-c3cc(F)c4ncccc4c3)c2c1,< 10
11,C=CCN(C)C(=O)c1cnc2[nH]cc(-c3cc(F)c4ncccc4c3)c2c1,< 10
12,CNC(=O)c1cnc2[nH]cc(-c3ccc4nccc(Cl)c4c3)c2c1,< 10
13,COc1cc(-c2c[nH]c3ncccc23)cc2cccnc12,≥ 100
14,CNC(=O)c1cnc2[nH]cc(-c3ccc4ncccc4c3)c2c1,< 10
15,c1cncc(-c2ccnc3ccc(-c4c[nH]c5ncccc45)cc23)c1,< 10
16,CC(=O)Nc1cnc2[nH]cc(-c3cc(F)c4nccc(-c5cccnc5)c4c3)c2c1,< 10
17,O=C(NCc1cccnc1)c1cnc2[nH]cc(-c3ccc4ncc(NCC5CCOCC5)cc4c3)c2c1,< 10
18,NC(=O)c1cnc2[nH]cc(-c3cc(F)c4ncccc4c3)c2c1,< 10
19,COc1cc(-c2c[nH]c3ncc(C(N)=O)cc23)cc2c(-c3cccnc3)ccnc12,≥ 100
20,c1ccc(-c2ccnc3ccc(-c4c[nH]c5ncccc45)cc23)cc1,< 10
21,c1cnc2ccc(-c3c[nH]c4ncccc34)cc2c1,< 10
22,Cc1cc(-c2c[nH]c3ncccc23)cc2cccnc12,≥ 100
23,N[C@H]1CCCN(c2ccnc3ccc(-c4c[nH]c5ncccc45)cc23)C1,< 10
24,FC(F)(F)Oc1cc(-c2c[nH]c3ncccc23)cc2cccnc12,≥ 100

# Same assay, conditions: sf21
row,Structure (SMILES),IC50 [nM]
1,C=CCN(C)C(=O)c1cnc2[nH]cc(-c3ccc4nccc(Cl)c4c3)c2c1,10
2,N[C@H]1CC[C@H](Nc2c(NCC3CCOCC3)cnc3ccc(-c4c[nH]c5ncc(C(=O)NCc6cccnc6)cc45)cc23)CC1,10
3,CN1CCC(Nc2c(C#N)cnc3ccc(-c4c[nH]c5ncccc45)cc23)CC1,10
4,Cc1cc(-c2c[nH]c3ncccc23)cc2c(-c3cccnc3)ccnc12,10
5,O=C(NCc1ccccc1)c1cnc2[nH]cc(-c3cc(F)c4nccc(-c5cccnc5)c4c3)c2c1,10
6,C=CCN(C)C(=O)c1cnc2[nH]cc(-c3cc(F)c4nccc(-c5cccnc5)c4c3)c2c1,10
7,Clc1ccnc2ccc(-c3c[nH]c4ncccc34)cc12,10
8,CN1CCC(N(C)c2c([N+](=O)[O-])cnc3ccc(-c4c[nH]c5ncccc45)cc23)CC1,10
9,CN1CCC(Nc2ccnc3ccc(-c4c[nH]c5ncccc45)cc23)CC1,10
10,CNC(=O)c1cnc2[nH]cc(-c3ccc4ncc(NCc5cccc(Cl)c5)c(N5CCOCC5)c4c3)c2c1,10
11,CNC(=O)c1cnc2[nH]cc(-c3ccc4ncc([N+](=O)[O-])c(N5CCC[C@H](N)C5)c4c3)c2c1,10
12,C=CCCCc1ccnc2ccc(-c3c[nH]c4ncc(CN(C)CC=C)cc34)cc12,10
13,CNC(=O)c1cnc2[nH]cc(-c3ccc4ncc(NCc5cccc(Cl)c5)c(N5CCC[C@H](N)C5)c4c3)c2c1,10
14,C=CCN(C)C(=O)c1cnc2[nH]cc(-c3cc(Cl)c4ncccc4c3)c2c1,10
15,C=CCN(C)Cc1cnc2[nH]cc(-c3cc(F)c4nccc(-c5cccnc5)c4c3)c2c1,10
16,N[C@H]1CC[C@H](Nc2c([N+](=O)[O-])cnc3ccc(-c4c[nH]c5ncc(C(=O)NCc6cccnc6)cc45)cc23)CC1,10
17,CNC(=O)c1cnc2[nH]cc(-c3ccc4ncc(NCC5CCOCC5)c(N5CCOCC5)c4c3)c2c1,10
18,O=C(NCc1ccccc1)c1cnc2[nH]cc(-c3cc(Cl)c4ncccc4c3)c2c1,10
